Measurements reported in patent publication US20230339991A1, “HYPOXIA-ACTIVATED DNA ALKYLATING AGENT AND MEDICAL USE THEREOF” (ASCENTAWITS PHARMACEUTICALS, LTD., priority 2020, published 2023).
Several values for one entry are separate records, joined by “and”; a condition that tells them apart may be missing. Equal values may be shown once. Values belong to the molecule of their own block, whether it stands above or below them.

Assays:
[1] = system: HuPrime pancreatic cancer PA3546 subcutaneous xenograft PDX tumor; assay: PA3546 human pancreatic cancer subcutaneous PDX model; details: 120 mg/kg i.p. QW×3; Day 25
[2] = target: P-gp (Homo sapiens, UniProt P08183); assay: P-gp substrate evaluation, MDCKII-MDR1 penetration test; details: dog; for Papp A→B at 2 h / Papp B→A at 2 h: MDCK-MDR1
Chain of P-gp (P08183 whole entry): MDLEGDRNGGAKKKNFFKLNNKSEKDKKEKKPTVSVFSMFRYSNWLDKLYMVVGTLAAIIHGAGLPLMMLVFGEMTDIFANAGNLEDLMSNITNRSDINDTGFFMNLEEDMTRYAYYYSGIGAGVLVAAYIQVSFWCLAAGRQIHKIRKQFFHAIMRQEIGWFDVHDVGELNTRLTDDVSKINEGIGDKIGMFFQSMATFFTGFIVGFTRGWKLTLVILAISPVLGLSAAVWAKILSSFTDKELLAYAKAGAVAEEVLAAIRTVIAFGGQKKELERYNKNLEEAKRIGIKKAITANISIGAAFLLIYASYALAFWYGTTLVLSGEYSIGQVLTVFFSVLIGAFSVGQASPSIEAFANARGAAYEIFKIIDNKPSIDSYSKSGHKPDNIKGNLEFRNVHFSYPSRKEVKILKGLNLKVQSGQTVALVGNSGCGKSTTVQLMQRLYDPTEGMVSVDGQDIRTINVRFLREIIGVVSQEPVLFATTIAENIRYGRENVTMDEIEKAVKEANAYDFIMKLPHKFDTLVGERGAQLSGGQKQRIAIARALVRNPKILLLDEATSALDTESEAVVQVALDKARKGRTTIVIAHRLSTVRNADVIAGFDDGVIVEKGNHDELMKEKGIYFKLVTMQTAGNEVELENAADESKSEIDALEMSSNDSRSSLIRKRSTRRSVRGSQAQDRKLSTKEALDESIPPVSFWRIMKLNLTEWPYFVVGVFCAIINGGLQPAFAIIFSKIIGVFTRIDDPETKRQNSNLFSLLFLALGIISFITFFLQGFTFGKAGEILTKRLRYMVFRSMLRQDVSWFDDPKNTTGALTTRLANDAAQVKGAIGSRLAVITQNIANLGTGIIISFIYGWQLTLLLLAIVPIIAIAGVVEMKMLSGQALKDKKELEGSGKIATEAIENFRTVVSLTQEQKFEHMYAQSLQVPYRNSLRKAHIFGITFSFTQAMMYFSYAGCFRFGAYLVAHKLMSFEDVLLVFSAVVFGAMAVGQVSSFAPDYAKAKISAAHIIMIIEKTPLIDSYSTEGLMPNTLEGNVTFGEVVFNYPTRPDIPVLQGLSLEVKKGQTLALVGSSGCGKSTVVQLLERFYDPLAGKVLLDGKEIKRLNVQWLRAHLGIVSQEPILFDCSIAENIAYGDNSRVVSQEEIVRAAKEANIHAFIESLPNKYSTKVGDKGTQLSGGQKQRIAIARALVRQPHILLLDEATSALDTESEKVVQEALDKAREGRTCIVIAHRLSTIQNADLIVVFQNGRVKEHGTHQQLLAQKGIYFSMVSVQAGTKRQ
Description: (1) MDCKII-MDR1 cells were cultured in the cell culture bottle. The conditions of the incubator were 37° C., 5% of CO2, and 95% of the relative humidity. When the cell growth confluence was up to 70-90%, the cells were inoculated to the transwell.
The cell suspension was transferred to the upper compartment of the 96-well transwell, wherein each upper compartment contains 50 μL of the cell suspension. The final inoculum density was 5.45×10^5 cells/cm^2.
(1) The transwell culture plate of the MDCKII-MDRT cells was taken out from the incubator. The cell monolayer membrane was rinsed two times with the buffer solution and incubated at 37° C. for 30 min.
(2) The transport rate that the compound was transported from the top-end to the base-end was tested. 75 μL of the buffer solution contained the sample was added to each upper compartment (top-end), and 235 μL of the buffer solution was added to each lower compartment (base-end).
(3) The transport rate that the compound was transported from the base-end to the top-end was tested. 75 μL of the buffer solution was added to each upper compartment (top-end), and 235 μL of the buffer solution contained the sample was added to each lower compartment (base-end).
(6) The upper and lower transits were merged up and then incubated at 37° C. for 2 h.
(7) After the incubation was finished, 50 μL of the samples from each well of the upper compartment and the lower compartment of the transwell culture plate were respectively added to new sample tubes. 200 μL of the acetonitrile containing the internal standard (100 nM Alprazolam, 200 nM Labetalol, 200 nM caffeine and 2 μM Ketoprofen) was added to each sample tube. After the sample tubes were vortexed for 10 min, they were centrifuged at 3220 g for 30 min. 100 μL of the supernatant was taken and diluted with the same volume of the water to perform the LC-MS/MS analysis. Each sample was adopted to the three parallel incubation.
The peak area was calculated by the result of the ion chromatography. The permeability coefficient (Papp, unit: cm/s×10^−6) of the compound was calculated by the formula: […]
In the formula, “VA” refers to the volume of the solution on the acceptor (Ap→Bl was 0.235 mL, and Bl→Ap was 0.075 mL), “Area” refers to the area of the permeable membrane of the 96-well transwell (0.143 cm^2), “time” refers to the incubation time (in second), “[drug]acceptor” refers to the drug concentration of the acceptor after the incubation, and “[drug]initial, donor” refers to the initial concentration of the drug administration before the incubation.
The efflux ratio was calculated by the following formula: […]
In the formula, “Papp (B-A)” refers to the permeability coefficient from the base-end to the top-end, and the term “Papp (A-B)” refers to the permeability coefficient from the top-end to the base-end.
The recovery was calculated by the following formula: […]
In the formula, “VA” refers to the volume of the solution on the acceptor (mL), “VD” refers to the volume of the solution on the donor (mL), “[drug]acceptor” refers to the drug concentration of the acceptor after the incubation, “[drug]donor” refers to the drug concentration of the donor after the incubation, and the term “[drug]initial, donor” refers to the initial concentration of the drug administration before the incubation.

[3] = system: human lung cancer NCI-H460 subcutaneous xenograft; assay: Human lung cancer NCI-H460 subcutaneous xenograft model, compounds B and C; assay type: in vivo, BALB/c nude mice
Description: BALB/c nude mice were subcutaneously inoculated with human lung cancer NCI-H460 cells to establish human lung cancer subcutaneous transplantation tumor model. […] The positive drug Irinotecan 40 mg/kg group was administered by intraperitoneal injection once every 4 days for 7 times, and observed for 4 days.

[4] = Plasma stability, dog; details: Dog plasma; after 30 minutes
Description: (§1) The frozen plasma was immediately melted in a water bath of 37° C. The plasma was centrifuged at 3, 220 g for 10 minutes to remove the blood clots and the supernatant was collected into a new test tube. The pH of the plasma was checked and recorded. Note: a. Only plasma that has been melted no more than twice since arrival was used; b. Only plasma in the range of pH 7 to pH 8 was used.
(§2) 1 mM of working solutions of the test compound and the control compound mevinolin were prepared in DMSO. 1 mM of the working solution of the control compound solution in […] was prepared in acetonitrile. 4 μL of the working solution was added to 796 μL of pre-incubated plasma to achieve 5 μM of final concentration. The final concentration of solvent was 0.5%.
(§3) The aliquots of 50 μL of the standard addition plasma were added to new test tubes and incubated in the water bath of 37° C. at approximately 60 rpm for 2 hours. The assay is performed in duplicate. At the end of the two hour incubation, 300 μL of quenched solution at room temperature (acetonitrile containing internal standards (acetonitrile, 100 nM Alprazolam, 500 nM Labetalol and 2 μM ketoprofen)) was added to terminate the reaction. Samples at time 0 were prepared by adding 50 μL of standard addition plasma to the new test tubes with 300 μL of quenched solution at room temperature. The test tubes were mixed by vortex for 5 minutes. The samples in the plates were centrifuged at 3, 220×g for 30 minutes at 4° C. to precipitate the proteins. 100 μL of supernatant was transferred to a new plate. The supernatant was diluted with 100 μL of water, mixed well and analysed using LC-MS/MS.

[5] = Plasma stability, rat; details: Rat plasma; after 30 minutes
Description: as §1, §2
as §3, with “The aliquots of 50 μL of the standard addition plasma were added to new test tubes and incubated in the water bath of 37° C. at approximately 60 rpm for 2 hours.” left out

[6] = system: human lung cancer NCI-H460-Luc2 intracranial transplantation tumor; details: 20 mg/kg i.p. QW×3; 11 days after grouping
Description: BALB/c nude mice were inoculated intracranially with human lung cancer NCI-H460-Luc2 cells to establish human lung cancer intracranial transplantation tumor model. […] The relative tumor inhibition rate TGI (%) was calculated based on tumor biofluorescence value and the efficacy was evaluated.

[7] = Plasma stability, mouse; assay type: in vitro ADME; details: Mouse plasma; after 30 minutes
Description: (§4) The pH of the plasma was checked and recorded. Note: a.
(§5) The final concentration of solvent was 0.5%.
(§6) The assay is performed in duplicate.

[8] = Plasma stability, human; assay type: in vitro ADME; details: Human plasma; after 30 minutes; 5 μM; 37° C.
Description: as §4, §5, §6

[9] = Plasma stability, monkey; assay type: in vitro ADME; details: Monkey plasma; after 30 minutes
Description: as §4, §5, §6

[10] = system: human liver cancer HepG2 subcutaneous xenograft; assay: Human liver cancer HepG2 subcutaneous xenograft model; assay type: in vivo, BALB/c nude mice
Description: BALB/c nude mice were subcutaneously inoculated with human liver cancer HepG2 cells to establish human liver cancer subcutaneous transplantation tumor model.

[11] = system: mice; details: prior literature WO2016210175A1, CN108024974A; cited from earlier work
[12] = MDCK-MDR1, Recovery (%) AP-BL, verapamil 0 μM
[13] = MDCK-MDR1, Recovery (%) BL-AP, verapamil 0 μM
[14] = MDCK-MDR1, with verapamil 100 μM (in donor and acceptor buffer), Recovery (%) AP-BL, verapamil 100 μM
[15] = MDCK-MDR1, with verapamil 100 μM (in donor and acceptor buffer), Recovery (%) BL-AP, verapamil 100 μM

SMILES: Nc1ccn([C@@H]2O[C@H](CO)[C@@H](O)C2(F)F)c(=O)n1 [Gemcitabine, reference compound]
relative tumor inhibition rate TGI (%) [1]: 45.31%

Papp A→B at 2 h [2]: 1.89 ×10⁻⁶ cm/s
Papp B→A at 2 h [2]: 30.5 ×10⁻⁶ cm/s
recovery at 2 h [2, 12]: 79%
recovery at 2 h [2, 13]: 63.4%
recovery at 2 h [2, 14]: 83%
recovery at 2 h [2, 15]: 87.6%
SMILES: Cc1ccc(NC(=O)c2ccc(CN3CCN(C)CC3)cc2)cc1Nc1nccc(-c2cccnc2)n1 [Imatinib]

SMILES: CCc1c2c(nc3ccc(OC(=O)N4CCC(N5CCCCC5)CC4)cc13)-c1cc3c(c(=O)n1C2)COC(=O)[C@]3(O)CC [Irinotecan, reference compound]
relative tumor inhibition rate TGI (%) ([3]; 40 mg/kg, Q4D×7, i.p., day 28): 79.03%
drug toxicity (weight loss / death) ([3]; at the tested dosage): a certain drug toxicity

SMILES: CC[C@H](C)C(=O)O[C@H]1C[C@@H](C)C=C2C=C[C@H](C)[C@H](CC[C@@H]3C[C@@H](O)CC(=O)O3)[C@H]21 [Lovastatin, reference compound]
Remaining percentage [4]: 58.73%
Remaining percentage [5]: 0.21% and 0.19%

Papp A→B at 2 h [2]: 27.6 ×10⁻⁶ cm/s
Papp B→A at 2 h [2]: 26.5 ×10⁻⁶ cm/s
recovery at 2 h [2, 12]: 96.2%
recovery at 2 h [2, 13]: 98.5%
SMILES: COCCc1ccc(OCC(O)CNC(C)C)cc1 (centres unmarked) [Metoprolol]

SMILES: CC(=O)O[C@H]1C(=O)[C@@]2(C)[C@H]([C@H](OC(=O)c3ccccc3)[C@]3(O)C[C@H](OC(=O)[C@H](O)[C@@H](NC(=O)c4ccccc4)c4ccccc4)C(C)=C1C3(C)C)[C@]1(OC(C)=O)CO[C@@H]1C[C@@H]2O [Paclitaxel, reference compound]
mean biofluorescence value [6]: 4184.52 E+05 photon/second

SMILES: CC(C)[N+](C)(CCOC(=O)C1c2ccccc2Oc2ccccc21)C(C)C [Propanthine, reference compound]
Remaining percentage [7]: 1.98%
Remaining percentage [8]: 0.07% and 3.32%
Remaining percentage [9]: 54.38%

SMILES: CNC(=O)c1cc(Oc2ccc(NC(=O)Nc3ccc(Cl)c(C(F)(F)F)c3)cc2)ccn1 [Sorafenib, reference compound]
cure rate ([10]; 30 mg/kg (Group 2)): 20%
relative tumor inhibition rate TGI (%) ([10]; 30 mg/kg, QD×21 Days, intragastric, Day 45): 48.11%

SMILES: C[C@@H](OP(=O)(N1CC1)N1CC1)c1ccc([N+](=O)[O-])cc1 [TH2565]
MTD Result [11]: 2 mg/kg

SMILES: C[C@H](OP(=O)(N1CC1)N1CC1)c1ccc([N+](=O)[O-])cc1 [TH2566]
MTD Result [11]: 2 mg/kg

Papp A→B at 2 h [2]: 11 ×10⁻⁶ cm/s
Papp B→A at 2 h [2]: 31.8 ×10⁻⁶ cm/s
recovery at 2 h [2, 12]: 90.7%
recovery at 2 h [2, 13]: 78.5%
recovery at 2 h [2, 14]: 94.2%
recovery at 2 h [2, 15]: 88.5%
SMILES: COc1cc2nc(N3CCN(C(=O)c4ccco4)CC3)nc(N)c2cc1OC [prazosin]
